# In ChEMBL document CHEMBL5505992, “Novel membrane-targeting isoxanthohumol-amine conjugates for combating methicillin-resistant Staphylococcus aureus (MRSA) infections” (Eur J Med Chem, 2024):
# The source made the active and inactive calls. The calls are words filed in the database; no cut-off is given here.
# Legend:
# Staphylococcus aureus [1] = test: Bactericidal activity against Staphylococcus aureus ATCC 29213 assessed as bacterial killing at 8 times MIC measured within 0.5 to 1 hrs by time kill assay relative to control; format: functional; details: time 0.5-1 hrs
# Staphylococcus aureus [2] = test: Bactericidal activity against Staphylococcus aureus ATCC 29213 assessed as bacterial killing at 4 times MIC measured within 4 to 8 hrs by time kill assay relative to control; format: functional; details: time 4-8 hrs
# Staphylococcus aureus [3] = test: Bactericidal activity against methicillin-resistant Staphylococcus aureus clinical isolate MRSA-16 assessed as bacterial killing measured upto 8 hrs by time kill assay; format: functional, organism-based
# Staphylococcus aureus [4] = test: Antibacterial activity against Staphylococcus aureus ATCC 29213 at sub-inhibitory concentration measured after 20 passages for 16 to 18 hrs; format: functional, organism-based; details: time 16-18 hrs
# Staphylococcus aureus [5] = test: Induction of morphological changes in methicillin-resistant Staphylococcus aureus clinical isolate MRSA-16 assessed as appearance of uneven cell surface at 16 ug/ml incubated for 4 hrs by SEM analysis; format: functional, organism-based; details: dose 16.0 µg/ml
# Staphylococcus aureus [6] = test: Induction of morphological changes in methicillin-resistant Staphylococcus aureus clinical isolate MRSA-16 assessed as ruptured cell surface at 16 ug/ml incubated for 4 hrs by SEM analysis; format: functional, organism-based; details: dose 16.0 µg/ml
# Cell membrane [7] = test: Disruption of cell membrane integrity in methicillin-resistant Staphylococcus aureus clinical isolate MRSA-16 assessed as increase in red fluorescence at 2 ug/ml incubated for 4 hrs by DAPI and PI staining based confocal microscopy analysis; format: cell membranes; details: dose 2.0 µg/ml
# Cell membrane [8] = test: Induction of cell membrane depolarization in methicillin-resistant Staphylococcus aureus clinical isolate MRSA-16 assessed as increase in fluorescence intensity measured after 10 mins by DISC3(5) staining based analysis; format: cell membranes; details: dose 8-32 µg/ml
# Cell membrane [9] = test: Induction of cytoplasmic membrane depolarization in methicillin-resistant Staphylococcus aureus clinical isolate MRSA-16 assessed as increase in fluorescence intensity at 8 to 32 ug/ml measured every 2 mins for 20 mins by SYTOX green staining based analysis; format: cell membranes; details: dose 8-32 µg/ml
# Cell membrane [10] = test: Induction of cell membrane permeability in methicillin-resistant Staphylococcus aureus clinical isolate MRSA-16 assessed as decrease in intact cells (Q3 region) at 4 ug/ml incubated for 2 hrs by SYTO 9 and PI staining based flow cytometry analysis (reference value: 99.07%); format: cell membranes; parameters: scale not given: the % may be the effect or the level left; details: dose 4.0 µg/ml
# Cell membrane [11] = test: Induction of cell membrane permeability in methicillin-resistant Staphylococcus aureus clinical isolate MRSA-16 assessed as decrease in intact cells (Q3 region) at 32 ug/ml incubated for 2 hrs by SYTO 9 and PI staining based flow cytometry analysis (reference value: 99.07%); format: cell membranes; parameters: scale not given: the % may be the effect or the level left; details: dose 32.0 µg/ml
# Cell membrane [12] = test: Induction of cell membrane permeability in methicillin-resistant Staphylococcus aureus clinical isolate MRSA-16 assessed as increase in damaged cells (Q2 region) at 16 ug/ml incubated for 2 hrs by SYTO 9 and PI staining based flow cytometry analysis (reference value: 0.91%); format: cell membranes; details: dose 16.0 µg/ml
# Staphylococcus aureus [13] = test: Antibacterial activity against methicillin-resistant Staphylococcus aureus in presence of phosphatidylglycerol; format: functional, organism-based
# Staphylococcus aureus [14] = test: Antibacterial activity against methicillin-resistant Staphylococcus aureus in presence of phosphatidylethanolamine; format: functional, organism-based
# Staphylococcus aureus [15] = test: Antibacterial activity against methicillin-resistant Staphylococcus aureus in presence of cardiolipin; format: functional, organism-based
# Cell membrane [16] = test: Disruption of cell membrane in methicillin-resistant Staphylococcus aureus clinical isolate MRSA-16 assessed as increase in intracellular ROS production at upto 64 ug/ml measured after 40 mins by DCFH-DA dye based fluorescence assay; format: cell membranes; details: dose <= 64.0 µg/ml
# Cell membrane [17] = test: Disruption of cell membrane in methicillin-resistant Staphylococcus aureus clinical isolate MRSA-16 assessed as increase in intracellular protein leakage incubated for 4 hrs by microspectrophotometer analysis; format: cell membranes
# [18] = Toxicity in Kunming mouse assessed as animal death at 5 to 10 mg/kg, sc measured after 24 hrs; format: organism-based; details: in vivo, dose 5-10 mg/kg
# [19] = Toxicity in Kunming mouse assessed as adverse effect at 5 to 10 mg/kg, sc measured after 24 hrs; format: organism-based; details: in vivo, dose 5-10 mg/kg
# [20] = Toxicity in Kunming mouse assessed as effect on spleen at 10 mg/kg, sc measured after 24 hrs by H and E staining based analysis; format: organism-based; details: in vivo
# [21] = Toxicity in Kunming mouse assessed as histopathological abnormalities in heart at 10 mg/kg, sc measured after 24 hrs by H and E staining based analysis; format: organism-based; details: in vivo
# [22] = Toxicity in Kunming mouse assessed as histopathological abnormalities in spleen at 10 mg/kg, sc measured after 24 hrs by H and E staining based analysis; format: organism-based; details: in vivo
# Staphylococcus aureus [23] = test: Antibacterial activity against methicillin-resistant Staphylococcus aureus infected in Kunming mouse skin infection model assessed as effect on skin lesions in subcutaneous tissue at 8 mg/kg,sc measured after 24 hrs; format: functional, organism-based
# Staphylococcus aureus [24] = test: Antibacterial activity against methicillin-resistant Staphylococcus aureus infected in Kunming mouse skin infection model assessed as effect on skin abscesses in dorsal surface at 4 mg/kg,sc measured after 24 hrs; format: functional, organism-based
# Staphylococcus aureus [25] = test: Antibacterial activity against methicillin-resistant Staphylococcus aureus infected in Kunming mouse skin infection model assessed as effect on skin abscesses at 4 mg/kg,sc measured after 24 hrs; format: functional, organism-based
# Staphylococcus aureus [26] = test: Antibacterial activity against methicillin-resistant Staphylococcus aureus infected in Kunming mouse skin infection model assessed as reduction in inflammatory cells at 4 to 8 mg/kg,sc measured after 24 hrs; format: functional, organism-based; details: dose 4-8 mg/kg
# Staphylococcus aureus [27] = test: Antibacterial activity against methicillin-resistant Staphylococcus aureus infected in Kunming mouse skin infection model assessed as decrease in bacterial load at 4 mg/kg,sc measured after 24 hrs relative to control; format: functional; parameters: scale not given: the % may be the effect or the level left
# [28] = Toxicity in Kunming mouse assessed as effect on spleen at 4 to 8 mg/kg, sc measured after 24 hrs by H and E staining based analysis; format: organism-based; details: in vivo, dose 4-8 mg/kg
# [29] = Toxicity in Kunming mouse assessed as effect on lung at 4 to 8 mg/kg, sc measured after 24 hrs by H and E staining based analysis; format: organism-based; details: in vivo, dose 4-8 mg/kg
# [30] = Toxicity in Kunming mouse assessed as histopathological abnormalities in heart at 4 to 8 mg/kg, sc measured after 24 hrs by H and E staining based analysis; format: organism-based; details: in vivo, dose 4-8 mg/kg
# [31] = Toxicity in Kunming mouse assessed as histopathological abnormalities in spleen at 4 to 8 mg/kg, sc measured after 24 hrs by H and E staining based analysis; format: organism-based; details: in vivo, dose 4-8 mg/kg
# [32] = Toxicity in Kunming mouse assessed as histopathological abnormalities in kidney at 4 to 8 mg/kg, sc measured after 24 hrs by H and E staining based analysis; format: organism-based; details: in vivo, dose 4-8 mg/kg
# Staphylococcus aureus [33] = test: Antibacterial activity against Staphylococcus aureus ATCC 29213 measured after 16 to 18 hrs by CLSI method; format: functional; details: time 16-18 hrs
# Staphylococcus aureus [34] = test: Antibacterial activity against methicillin-resistant Staphylococcus aureus clinical isolate MRSA-13 measured after 16 to 18 hrs by CLSI method; format: functional; details: time 16-18 hrs
# Staphylococcus aureus [35] = test: Antibacterial activity against methicillin-resistant Staphylococcus aureus clinical isolate MRSA-17 measured after 16 to 18 hrs by CLSI method; format: functional; details: time 16-18 hrs
# Staphylococcus aureus [36] = test: Antibacterial activity against methicillin-resistant Staphylococcus aureus clinical isolate MRSA-23 measured after 16 to 18 hrs by CLSI method; format: functional; details: time 16-18 hrs
# Escherichia coli = test: Antibacterial activity against Escherichia coli ATCC25922 measured after 16 to 18 hrs by CLSI method; format: functional; details: time 16-18 hrs
structure (smiles),measurement,setting,value
CCCC[N+](C)(CCCC)CCCCCOc1ccc(C2CC(=O)c3c(OC)cc(OCCCCC[N+](C)(CCCC)CCCC)c(CC=C(C)C)c3O2)cc1.[I-].[I-] (configuration not stated),Activity,Staphylococcus aureus [1],100%
same,Activity,Staphylococcus aureus [2],100%
same,Activity,Staphylococcus aureus [3],Dose-Dependent Effect
same,Activity,Staphylococcus aureus [4],inactive
same,Activity,Staphylococcus aureus [5],Active
same,Activity,Staphylococcus aureus [6],Active
same,Activity,Cell membrane [7],Active
same,Activity,Cell membrane [8],Dose-Dependent Effect
same,Activity,Cell membrane [9],Active
same,Activity,Cell membrane [10],60.8%
same,Activity,Cell membrane [11],0.02%
same,Activity,Cell membrane [12],69.9%
same,Activity,Staphylococcus aureus [13],Active
same,Activity,Staphylococcus aureus [14],Active
same,Activity,Staphylococcus aureus [15],Active
same,Activity,Cell membrane [16],Active
same,Activity,Cell membrane [17],Active
same,Activity,[18],Non-Toxic
same,Activity,[19],Non-Toxic
same,Activity,[20],Non-Toxic
same,Activity,[21],Non-Toxic
same,Activity,[22],Non-Toxic
same,Activity,Staphylococcus aureus [23],inactive
same,Activity,Staphylococcus aureus [24],Active
same,Activity,Staphylococcus aureus [25],Active
same,Activity,Staphylococcus aureus [26],Active
same,Activity,Staphylococcus aureus [27],99.86%
same,Activity,[28],Non-Toxic
same,Activity,[29],Non-Toxic
same,Activity,[30],Non-Toxic
same,Activity,[31],Non-Toxic
same,Activity,[32],Non-Toxic
same,MIC,Staphylococcus aureus [33],1 µg/mL
same,MIC,Staphylococcus aureus [34],0.25 µg/mL
same,MIC,Staphylococcus aureus [35],0.25 µg/mL
same,MIC,Staphylococcus aureus [36],0.25 µg/mL
same,MIC,Escherichia coli,16 µg/mL
